Values quoted from earlier work, collected in paper PMC10215804, “Exploring Alternative Pathways to Target Bacterial Type II Topoisomerases Using NBTI Antibacterials: Beyond Halogen-Bonding Interactions” (Antibiotics, 2023).
Values after ≈ are worked out from the molar mass of the structure shown.

Columns and labels:
[1] = target: T1, S. aureus DNA gyrase (Staphylococcus aureus, UniProt P20831); settings: supercoiling inhibition; cited from earlier work
T1 construct: purchased Inspiralis (Norwich, UK)

[2] = target: T2, E. coli DNA gyrase (Escherichia coli, UniProt P0AES4); settings: supercoiling inhibition; cited from earlier work
T2 construct: purchased Inspiralis (Norwich, UK)

[3] = target: T3, S. aureus topoIV (Staphylococcus aureus, UniProt P0C1U9); settings: relaxation inhibition; cited from earlier work
T3 construct: purchased Inspiralis (Norwich, UK)

[4] = target: T4, E. coli topoIV (Escherichia coli, UniProt P0AFI2); settings: relaxation inhibition; cited from earlier work
T4 construct: purchased Inspiralis (Norwich, UK)

[5] = target: T5, human topoisomerase IIα (Homo sapiens, UniProt P11388); settings: residual activity at 100 µM compound; cited from earlier work
T5 construct: purchased Inspiralis (Norwich, UK)

[6] = test system: S. aureus (ATCC 29213); settings: cited from earlier work
[7] = test system: MRSA (QA-11.7); settings: cited from earlier work
[8] = test system: MRSA(QA-12.1); design: method as in PMID 35970069; settings: cited from earlier work
[9] = test system: MRSA (QA-11.2); design: method as in PMID 35970069; settings: cited from earlier work
[10] = test system: E. coli (ATCC 25922); settings: cited from earlier work
[11] = test system: E. coli D22; settings: lpxC mutation; cited from earlier work
[12] = test system: E. coli N43 (CGSC# 5583); settings: AcrA knockout; cited from earlier work
[13] = test system: E. coli ESBL QA-11.3; design: method as in PMID 35970069; settings: cited from earlier work
[14] = test system: K. pneumoniae; design: method as in PMID 35970069; settings: cited from earlier work
[15] = test system: P. aeruginosa RDK 184; settings: cited from earlier work
[16] = test system: E. faecalis RDK 057; settings: cited from earlier work
[17] = test system: VRE; settings: cited from earlier work
[18] = test system: A. baumannii; design: method as in PMID 35970069; settings: cited from earlier work

T1 sequence (P20831 whole entry): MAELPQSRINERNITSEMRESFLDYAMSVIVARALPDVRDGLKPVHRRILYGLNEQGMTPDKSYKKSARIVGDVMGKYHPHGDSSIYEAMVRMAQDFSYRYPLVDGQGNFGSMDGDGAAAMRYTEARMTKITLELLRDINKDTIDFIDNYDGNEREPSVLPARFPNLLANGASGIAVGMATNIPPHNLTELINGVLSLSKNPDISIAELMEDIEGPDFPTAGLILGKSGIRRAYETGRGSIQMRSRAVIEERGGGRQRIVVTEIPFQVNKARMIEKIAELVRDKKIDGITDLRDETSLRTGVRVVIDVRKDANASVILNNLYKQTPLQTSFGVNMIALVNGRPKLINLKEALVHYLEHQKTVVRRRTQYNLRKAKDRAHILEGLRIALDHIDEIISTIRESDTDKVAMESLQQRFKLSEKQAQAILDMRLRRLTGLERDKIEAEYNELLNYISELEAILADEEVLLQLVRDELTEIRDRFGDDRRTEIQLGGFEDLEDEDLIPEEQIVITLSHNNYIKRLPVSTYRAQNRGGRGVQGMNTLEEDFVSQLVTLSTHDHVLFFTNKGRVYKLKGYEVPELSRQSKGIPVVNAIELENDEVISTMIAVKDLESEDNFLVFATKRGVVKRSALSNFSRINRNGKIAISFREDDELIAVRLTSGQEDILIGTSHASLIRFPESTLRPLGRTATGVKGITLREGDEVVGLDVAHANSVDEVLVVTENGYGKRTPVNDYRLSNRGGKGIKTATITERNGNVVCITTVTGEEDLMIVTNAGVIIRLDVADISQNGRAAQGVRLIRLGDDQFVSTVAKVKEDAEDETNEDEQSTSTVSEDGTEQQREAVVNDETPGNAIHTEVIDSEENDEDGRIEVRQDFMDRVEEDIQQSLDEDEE
T1 sequence (P0A0K8 whole entry partner): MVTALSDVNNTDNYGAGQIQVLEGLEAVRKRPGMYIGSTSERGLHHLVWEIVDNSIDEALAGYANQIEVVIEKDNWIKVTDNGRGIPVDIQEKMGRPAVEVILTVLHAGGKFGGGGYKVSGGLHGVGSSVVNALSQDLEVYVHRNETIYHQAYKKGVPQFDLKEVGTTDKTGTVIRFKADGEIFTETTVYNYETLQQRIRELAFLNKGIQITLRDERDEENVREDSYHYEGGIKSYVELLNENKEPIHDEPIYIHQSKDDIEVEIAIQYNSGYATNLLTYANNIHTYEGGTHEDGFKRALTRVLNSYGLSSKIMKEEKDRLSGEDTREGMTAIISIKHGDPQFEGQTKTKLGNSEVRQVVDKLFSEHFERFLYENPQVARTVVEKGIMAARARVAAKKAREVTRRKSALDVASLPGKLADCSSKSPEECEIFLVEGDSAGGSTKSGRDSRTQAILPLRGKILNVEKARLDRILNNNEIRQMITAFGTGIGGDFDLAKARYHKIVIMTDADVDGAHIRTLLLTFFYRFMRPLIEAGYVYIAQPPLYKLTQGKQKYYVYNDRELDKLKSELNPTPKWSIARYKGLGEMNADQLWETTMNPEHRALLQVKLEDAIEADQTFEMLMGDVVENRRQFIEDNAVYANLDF
T4 sequence (P20083 whole entry): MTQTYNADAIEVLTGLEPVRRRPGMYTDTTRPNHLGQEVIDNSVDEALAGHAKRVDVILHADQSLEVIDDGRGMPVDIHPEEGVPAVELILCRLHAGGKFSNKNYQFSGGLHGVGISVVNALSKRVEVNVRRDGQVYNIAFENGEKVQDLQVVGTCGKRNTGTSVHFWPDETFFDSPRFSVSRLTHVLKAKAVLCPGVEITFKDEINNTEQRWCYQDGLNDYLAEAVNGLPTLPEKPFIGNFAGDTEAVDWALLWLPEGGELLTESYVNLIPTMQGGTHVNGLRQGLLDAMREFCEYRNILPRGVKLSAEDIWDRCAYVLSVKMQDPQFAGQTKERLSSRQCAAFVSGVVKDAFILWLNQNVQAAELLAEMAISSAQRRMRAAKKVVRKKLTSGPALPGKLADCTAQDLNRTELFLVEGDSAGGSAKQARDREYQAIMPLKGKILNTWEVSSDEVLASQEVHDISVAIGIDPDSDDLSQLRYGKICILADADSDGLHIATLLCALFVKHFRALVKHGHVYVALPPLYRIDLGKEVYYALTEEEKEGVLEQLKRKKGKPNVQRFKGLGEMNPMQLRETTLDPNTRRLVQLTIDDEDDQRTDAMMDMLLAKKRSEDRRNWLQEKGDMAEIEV
T4 sequence (P0AFI2 whole entry): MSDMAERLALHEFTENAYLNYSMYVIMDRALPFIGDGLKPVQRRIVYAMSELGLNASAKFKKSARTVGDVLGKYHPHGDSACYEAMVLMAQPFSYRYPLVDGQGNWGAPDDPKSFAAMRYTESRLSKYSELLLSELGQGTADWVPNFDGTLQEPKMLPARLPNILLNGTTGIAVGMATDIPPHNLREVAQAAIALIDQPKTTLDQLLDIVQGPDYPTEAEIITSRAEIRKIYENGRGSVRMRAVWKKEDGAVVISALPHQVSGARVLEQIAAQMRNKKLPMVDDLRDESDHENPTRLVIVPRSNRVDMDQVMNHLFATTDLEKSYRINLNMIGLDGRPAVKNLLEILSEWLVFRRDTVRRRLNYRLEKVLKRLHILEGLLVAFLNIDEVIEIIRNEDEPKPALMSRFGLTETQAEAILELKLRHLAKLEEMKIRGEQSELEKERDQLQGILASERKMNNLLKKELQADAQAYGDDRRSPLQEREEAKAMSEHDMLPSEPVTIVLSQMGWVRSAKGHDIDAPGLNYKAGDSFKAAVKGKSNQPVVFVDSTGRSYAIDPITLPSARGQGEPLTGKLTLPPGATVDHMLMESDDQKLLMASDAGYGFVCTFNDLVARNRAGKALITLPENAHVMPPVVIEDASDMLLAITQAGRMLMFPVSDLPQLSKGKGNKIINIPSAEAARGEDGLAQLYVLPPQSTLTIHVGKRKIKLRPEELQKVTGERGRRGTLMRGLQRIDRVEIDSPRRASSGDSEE
T5 sequence (P11388 whole entry): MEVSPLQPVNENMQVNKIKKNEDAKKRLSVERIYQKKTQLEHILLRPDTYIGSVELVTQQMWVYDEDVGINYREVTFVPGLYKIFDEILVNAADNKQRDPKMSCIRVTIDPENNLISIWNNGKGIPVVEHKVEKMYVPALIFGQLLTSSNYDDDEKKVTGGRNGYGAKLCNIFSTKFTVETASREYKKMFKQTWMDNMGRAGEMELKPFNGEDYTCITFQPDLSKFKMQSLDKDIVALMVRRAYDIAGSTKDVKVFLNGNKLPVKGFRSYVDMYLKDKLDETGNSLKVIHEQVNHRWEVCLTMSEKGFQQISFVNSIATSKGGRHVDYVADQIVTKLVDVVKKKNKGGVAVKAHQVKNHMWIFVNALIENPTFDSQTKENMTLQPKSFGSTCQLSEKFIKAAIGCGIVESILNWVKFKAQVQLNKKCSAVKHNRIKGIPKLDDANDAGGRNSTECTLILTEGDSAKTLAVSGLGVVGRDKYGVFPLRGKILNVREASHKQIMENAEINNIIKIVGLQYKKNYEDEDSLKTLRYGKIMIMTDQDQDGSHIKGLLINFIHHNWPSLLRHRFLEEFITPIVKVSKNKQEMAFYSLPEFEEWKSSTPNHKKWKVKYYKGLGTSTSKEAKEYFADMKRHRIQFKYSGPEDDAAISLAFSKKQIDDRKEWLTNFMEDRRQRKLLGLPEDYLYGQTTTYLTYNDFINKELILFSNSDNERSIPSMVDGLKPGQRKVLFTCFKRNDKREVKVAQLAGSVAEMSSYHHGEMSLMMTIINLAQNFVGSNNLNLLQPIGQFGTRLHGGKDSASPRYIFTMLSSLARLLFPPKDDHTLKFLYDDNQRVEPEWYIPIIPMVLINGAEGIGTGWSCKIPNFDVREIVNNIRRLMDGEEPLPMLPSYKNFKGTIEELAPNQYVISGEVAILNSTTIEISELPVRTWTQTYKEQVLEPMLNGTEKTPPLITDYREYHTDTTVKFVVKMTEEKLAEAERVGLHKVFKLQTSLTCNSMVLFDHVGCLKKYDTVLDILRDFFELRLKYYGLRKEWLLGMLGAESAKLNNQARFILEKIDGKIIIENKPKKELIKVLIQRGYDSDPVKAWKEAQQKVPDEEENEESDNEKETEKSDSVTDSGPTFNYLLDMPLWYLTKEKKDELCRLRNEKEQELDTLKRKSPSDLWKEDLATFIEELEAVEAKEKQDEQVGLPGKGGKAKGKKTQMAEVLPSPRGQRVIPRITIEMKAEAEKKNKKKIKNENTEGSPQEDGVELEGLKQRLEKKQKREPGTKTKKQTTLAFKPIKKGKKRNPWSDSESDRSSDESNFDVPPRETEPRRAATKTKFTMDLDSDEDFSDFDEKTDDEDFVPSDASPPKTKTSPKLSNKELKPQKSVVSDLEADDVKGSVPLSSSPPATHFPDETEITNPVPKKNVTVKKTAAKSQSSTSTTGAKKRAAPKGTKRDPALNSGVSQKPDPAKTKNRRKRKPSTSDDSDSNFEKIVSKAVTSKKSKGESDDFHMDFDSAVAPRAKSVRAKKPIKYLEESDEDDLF

Row | SMILES | IC50 [1] [µM] | IC50 [2] [µM] | IC50 [3] [µM] | IC50 [4] [µM] | Human TopoIIα (% RA at 100 µM) [5] [%] | MIC S. aureus (ATCC 29213) [6] [mg/L] | MIC MRSA (QA-11.7) [7] [mg/L] | MIC MRSA(QA-12.1) [8] [mg/L] | MIC MRSA (QA-11.2) [9] [mg/L] | MIC E. coli (ATCC 25922) [10] [mg/L] | MIC E. coli D22 [11] [mg/L] | MIC E. coli N43 (CGSC# 5583) [12] [mg/L] | MIC E. coli ESBL QA-11.3 [13] [mg/L] | MIC K. pneumoniae [14] [mg/L] | MIC P. aeruginosa RDK 184 [15] [mg/L] | MIC E. faecalis RDK 057 [16] [mg/L] | MIC VRE [17] [mg/L] | MIC A. baumannii [18] [mg/L]
1 | COc1ccc2nccc(C(O)CC3CC[C@H](NCc4ccc(Br)cc4)CO3)c2n1 (stereo partly drawn) [Compound 4] | 0.065 ± 0.002 | 1.57 ± 0.404 | > 100 | 0.052 ± 0.003 | 106 ± 0 | 0.016 (≈ 0.0339 µM) | 0.016 (≈ 0.0339 µM) | 0.016 (≈ 0.0339 µM) | 0.031 (≈ 0.0656 µM) | 16 (≈ 33.9 µM) | 1 (≈ 2.12 µM) | 0.25 (≈ 0.529 µM) | >128 | 128 (≈ 271 µM) | 128 (≈ 271 µM) | 0.5 (≈ 1.06 µM) | 0.032 (≈ 0.0677 µM) | >128
2 | COc1ccc2nccc(OC[C@H]3CC[C@H](NCc4ccc(Br)cc4)CO3)c2n1 [Compound 3] | 0.294 ± 0.1 | 7.74 ± 2.31 | > 100 | 0.131 ± 0.04 | 105 ± 1 | 0.125 (≈ 0.273 µM) | 0.5 (≈ 1.09 µM) | 0.125 (≈ 0.273 µM) | 0.25 (≈ 0.545 µM) | 128 (≈ 279 µM) | 8 (≈ 17.5 µM) | 8 (≈ 17.5 µM) | >128 | 128 (≈ 279 µM) | 128 (≈ 279 µM) | 2 (≈ 4.36 µM) | 1 (≈ 2.18 µM) | >128
